Data set [1] relates to EROD activity, non-Cyp1a component of the liver microsomes. The data set can be described thus: in vitro. The note with it: mouse, pH 7.4.
Description: (§2) Protein enzyme/concentrations were 3.46 pmol/ml for recombinant human CYP1A1, 10.8 pmol/ml for recombinant human CYP1A2, 0.05 mg protein/ml for liver microsomes from TCDD-treated hCYP1A1/1A2 mice, and 0.25 mg protein/ml for liver microsomes from TCDD-treated Cyp1 KO mice and vehicle-treated hCYP1A1/1A2 mice. Where needed, total protein concentration in the reaction mixtures was adjusted using Control Bactosomes (Cypex), so all reactions (including those with the recombinant cytochrome P450s) were carried out at a total protein concentration of 0.25 mg protein/ml. Generation of fluorescent product was registered in a kinetic mode (excitation filter, 530 nm; emission filter, 584 nm). Slopes of the linear part of the kinetic curves were calculated using Ascent Software version 2.4.1 (Labsystems). For each well with the reaction medium, there was a control well containing the reaction mixture with resorufin (40 pmol). Before addition of NADPH to the reaction wells, fluorescence was recorded both from the reaction and from the control wells. The average fluorescence was calculated, and the difference between wells with and without resorufin was used for the conversion of the relative fluorescence units to the picomoles of the reaction product.
For data set [2], the target named is T1, recombinant human CYP1A1 (Homo sapiens, UniProt P04798).
T1 sequence (P04798 1-512): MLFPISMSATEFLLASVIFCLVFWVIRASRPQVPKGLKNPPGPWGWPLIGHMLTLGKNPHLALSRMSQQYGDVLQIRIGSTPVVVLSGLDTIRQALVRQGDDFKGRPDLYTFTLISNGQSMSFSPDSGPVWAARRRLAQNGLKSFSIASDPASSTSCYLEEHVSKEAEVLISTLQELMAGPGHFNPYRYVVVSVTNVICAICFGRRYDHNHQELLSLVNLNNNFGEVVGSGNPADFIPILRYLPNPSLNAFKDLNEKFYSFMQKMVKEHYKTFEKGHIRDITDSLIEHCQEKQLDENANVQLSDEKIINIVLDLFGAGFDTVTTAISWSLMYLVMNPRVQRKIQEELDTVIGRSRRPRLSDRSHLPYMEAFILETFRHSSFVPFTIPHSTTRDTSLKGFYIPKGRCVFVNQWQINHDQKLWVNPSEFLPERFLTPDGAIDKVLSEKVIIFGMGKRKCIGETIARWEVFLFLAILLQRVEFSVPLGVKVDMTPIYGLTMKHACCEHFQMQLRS
As to the kind of experiment: MROD by recombinant human CYP1A1, inhibition by quinidine. The note with it: rCYP1A1.
Description: (§3) Slopes of the linear part of the kinetic curves were calculated using Ascent Software version 2.4.1 (Labsystems).
(§4) Where needed, total protein concentration in the reaction mixtures was adjusted using Control Bactosomes (Cypex), so all reactions (including those with the recombinant cytochrome P450s) were carried out at a total protein concentration of 0.25 mg protein/ml. […] Slopes of the linear part of the kinetic curves were calculated using Ascent Software version 2.4.1 (Labsystems). For each well with the reaction medium, there was a control well containing the reaction mixture with resorufin (40 pmol). Before addition of NADPH to the reaction wells, fluorescence was recorded both from the reaction and from the control wells. The average fluorescence was calculated, and the difference between wells with and without resorufin was used for the conversion of the relative fluorescence units to the picomoles of the reaction product.

Data set [3] deals with T2, recombinant human CYP1A2 (Homo sapiens, UniProt P05177).
T2 sequence (P05177 1-516): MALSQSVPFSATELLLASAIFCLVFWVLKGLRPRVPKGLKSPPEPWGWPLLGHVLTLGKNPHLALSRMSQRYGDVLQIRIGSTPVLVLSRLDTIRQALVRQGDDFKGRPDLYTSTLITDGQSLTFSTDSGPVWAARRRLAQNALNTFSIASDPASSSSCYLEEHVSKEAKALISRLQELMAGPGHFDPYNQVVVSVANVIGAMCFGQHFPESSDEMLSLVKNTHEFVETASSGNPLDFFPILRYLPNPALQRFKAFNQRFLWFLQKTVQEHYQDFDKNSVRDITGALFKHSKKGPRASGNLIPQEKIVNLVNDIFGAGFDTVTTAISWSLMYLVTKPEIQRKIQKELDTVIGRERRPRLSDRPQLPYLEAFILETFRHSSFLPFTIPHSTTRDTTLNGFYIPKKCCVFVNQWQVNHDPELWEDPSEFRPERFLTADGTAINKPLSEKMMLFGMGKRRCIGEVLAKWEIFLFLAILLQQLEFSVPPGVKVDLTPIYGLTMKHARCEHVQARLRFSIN
To be noted: quinidine 0, 30, 200 μM.
Description: as §2

Data set [4] deals with liver microsomes from vehicle-treated hCYP1A1/1A2 mice. As to the kind of experiment: MROD in liver microsomes from vehicle-treated hCYP1A1/1A2 mice with quinidine. To be noted: 200 μM quinidine. The data set is classed as biochemical, mouse. On the technique in general: Liver microsomes are a subcellular fraction often used to study metabolism.
Description: as §2
Data set [5] addresses T1, recombinant human CYP1A1. The data set can be described thus: biochemical.
Description: as §3, §4
For data set [6], the system named is MROD activity, non-Cyp1a component of the liver microsomes. As to the kind of experiment: in vitro. The note with it: mouse, pH 7.4.
Description: as §2
The target in data set [7] is T1, recombinant human CYP1A1. As to the kind of experiment: EROD by recombinant human CYP1A1 with and without quinidine.
Description: as §4
For data set [8], the system named is EROD activity of liver microsomes from vehicle-treated hCYP1A1/1A2 mice. As to the kind of experiment: EROD in liver microsomes from vehicle-treated hCYP1A1/1A2 mice with quinidine. To be noted: hCYP1A1/1A2 humanized, mouse, pH 7.4. Format: biochemical.
Description: as §2
In data set [9] the target is T2, recombinant human CYP1A2. The data set can be described thus: MROD by recombinant human CYP1A2, inhibition by quinidine. To be noted: quinidine 0, 30, 200 μM.
Description: as §3, §4
Data set [10] can be described thus: Microsomal stability in pooled human liver microsomes. How it is done: (§1) The reaction was started by addition of 200 μl of NADPH to the remaining mixture of ramelteon with microsomes, and 100-μl aliquots were taken at 1, 2, 5, 10, 15, 20, and 30 minutes after the reaction start; mixed with an equal volume of ice-cold methanol containing the internal standard; incubated on ice for at least 20 minutes; and centrifuged for 15 minutes at 16,000 rcf and +4°C on Centrifuge 5415 R (Eppendorf, Hamburg, Germany). Control incubations were carried out without the cofactor or microsomes. The concentration of ramelteon in the supernatant was measured by high-performance liquid chromatography–tandem mass spectrometry (MS/MS). Chromatographic separation was performed on a Prodigy Phenyl-3 column (5 μm, 50 × 2.0 mm; Phenomenex) using an injection volume of 10 μl and a run time of 7 minutes. Mobile phase consisted of 0.1% solutions of formic acid in water (solvent A) and acetonitrile (solvent B). For elution, a linear gradient from 20% to 60% of solvent B in 4 minutes was used, followed by 3-minute equilibration at 20% B. The multiple reaction monitoring parameters for ramelteon and tacrine were 260.28, 199.2 (precursor ion) and 204.21, 171.11 (product ion), respectively. The concentrations of ramelteon were calculated from the calibration curve.

Data set [11] can be described thus: Microsomal stability in mouse liver microsomes (WT, Cyp1a KO, hCYP1A1/1A2). How it is done:
as §1

For the compound `C=C[C@H]1C[N@@]2CC[C@H]1C[C@@H]2[C@@H](O)c1ccnc2ccc(OC)cc12` [quinidine], the Ki was over 200 µM in data set [1] (Cyp1a KO); 422 ± 18 µM in data set [1]; 2.2 ± 0.18 µM on recombinant human CYP1A1 [5]; over 200 µM in data set [6] (Cyp1a KO); 272 ± 28 µM in data set [6]; 3.3 ± 0.35 µM at recombinant human CYP1A1 [7]. For the same compound, the “Quinidine Inhibition Type” value was “Competitive” on recombinant human CYP1A1 [2] and “Mixed” at recombinant human CYP1A1 [7] (EROD, rCYP1A1). Also, the “inhibition of EROD activity catalyzed by CYP1A2” value on recombinant human CYP1A2 [3] was “did not inhibit”. In addition, the “effect on MROD” value in data set [4] is recorded as “not affected”. In addition, the IC50 on recombinant human CYP1A1 [5] stood at 5.8 µM. Moreover, the α on recombinant human CYP1A1 [7] (EROD, rCYP1A1, effect of inhibitor binding on substrate binding) is 31 ± 8. Moreover, the inhibition at 200 μM in [8] was about 20%. Moreover, on recombinant human CYP1A2 [9], the “inhibition of MROD activity catalyzed by CYP1A2” value was “did not inhibit”.

As for `CCC(=O)NCC[C@@H]1CCc2ccc3c(c21)CCO3` [ramelteon], the “in vitro clearance relative to WT” value in data set [10] is given as about 70%; in data set [11] (Cyp1a KO mouse liver microsomes), about 83%; in data set [11] (hCYP1A1/1A2 mouse liver microsomes), about 190%. In addition, the “contribution of mouse Cyp1a2 to clearance” value in data set [11] (WT liver microsomes) is recorded as 17%. In [11] (WT mice liver microsomes, eqs. 15 and 16), the “fraction metabolized by Cyp1a2” value was about 0.17. The “fraction metabolized by CYP1A2” value in data set [11] (hCYP1A1/1A2 mice liver microsomes, eqs. 15 and 16) worked out at 0.56. The “contribution of CYP1A2 to clearance” value in data set [11] (liver microsomes of hCYP1A1/1A2 mice) came to 56%.

As a reminder, the Ki is the dissociation constant of the complex between target and ligand, obtained from inhibition or displacement. As a reminder, the IC50 is the concentration that inhibits the measured activity by half. The term inhibition denotes the change of the read-out against control, counted positive when it falls. High values mean a response far below the control, low ones a response near the control.

Values taken from paper PMC6657216, “Defining the Contribution of CYP1A1 and CYP1A2 to Drug Metabolism Using Humanized CYP1A1/1A2 and Cyp1a1/Cyp1a2 Knockout Mice” (Drug Metabolism and Disposition, 2019).
